A short description of data set [1]: Phase II clinical trial of RO4588161: premature withdrawal for safety reasons. The format is in vivo, human. The text has this:
This was a phase 2A, multi-center, randomized, double-blinded (RO4588161 and ribavirin were double-blinded and Pegasys was open labeled), active-controlled, with a parallel-group study which is ongoing. A screening period (time from the first screening assessment to the first administration of test drug) of 35 days preceded the treatment portion of the trial (FIG. 1). The HCV genotype and HCV RNA titer of each patient was confirmed during the screening period and only treatment-naïve patients with HCV genotype-1 and HCV RNA titer ≧50,000 IU/mL were eligible for enrollment.
One hundred and seven male and female patients between 18 and 66 years of age were enrolled into the study. Patients were randomized into four treatment groups: • Group A/Dual 1500 [RO4588161 1500 mg oral, twice daily+Pegasys 180 μg subcutaneous, once weekly] for 4 weeks—21 patients, • Group B/Dual 3000 [R04588161 3000 mg oral, twice daily+Pegasys 180 μg subcutaneous, once weekly] for 4 weeks—34 patients, • Group C/Triple 1500 [R04588161 1500 mg oral, twice daily+Pegasys 180 μg subcutaneous, once weekly+ribavirin 1000 mg (<75 kg) or 1200 mg (≧75 kg) oral daily] for 4 weeks—31 patients or • Group D/standard of care (SOC) [Pegasys 180 μg subcutaneous, once weekly+ribavirin 1000 mg (<75 kg) or 1200 mg (≧75 kg) oral daily] for 4 weeks—21 patients […]

For the next data set, the system named is HCV. The conditions noted are these: monotherapy; cited from earlier work.
For data set [2] the following is noted: in vivo; cited from earlier work.

Molecules are shown by their SMILES.

With `NC(=O)c1ncn([C@@H]2O[C@H](CO)[C@@H](O)[C@H]2O)n1` [ribavirin, 1-((2R,3R,4S,5R)-3,4-Dihydroxy-5-hydroxymethyl-tetrahydro-furan-2-yl)-1H-[1,2,4]triazole-3-carboxylic acid amide], the “patients who prematurely withdrew for safety reasons from treatment” value in data set [1] (both, human, in vivo, 4 weeks) worked out at 5 patients. Also, in the data set with HCV, the “effect on serum levels of HCV-RNA” value is listed as “does not lower serum levels of HCV-RNA” and the “patients whose serum amino transferase levels are reduced to normal” value is reported as 40%. Moreover, in data set [2], the “patients with hemolytic anemia requiring dose reduction or discontinuation of ribavirin therapy” value is recorded as 10 to 20%.

Turning to `CC(C)C(=O)OC[C@@]1(N=[N+]=[N-])O[C@@H](n2ccc(N)nc2=O)[C@H](OC(=O)C(C)C)[C@@H]1OC(=O)C(C)C` [RO4588161, Isobutyric acid (2R,3S,4R,5R)-5-(4-amino-2-oxo-2H-pyrimidin-1-yl)-2-azido-3,4-bis-isobutyryloxy-tetrahydro-furan-2-ylmethyl ester], in data set [1] (among the 104 evaluable patients), the “patients who prematurely withdrew for safety reasons from treatment” value amounted to 43 patients.

Values taken from US20110281747A1, “BIOMARKERS FOR PREDICTING RAPID RESPONSE TO HCV TREATMENT” (ROCHE MOLECULAR SYSTEMS, INC., priority 2009, published 2011).
